System: WT ELIC
Experiment: Tryptophan fluorescence emission spectrum with and without agonist
Format: biochemical, Erwinia chrysanthemi
Settings: WT 30 mM Cys
Method: To measure the tryptophan (Trp) fluorescence emission of ELIC, WT or W206F ELIC was diluted to 3 ml (0.02 mg/ml) and an emission spectrum was collected in a quartz fluorescence cell using a Fluoromax Plus Spectrofluorometer (Horiba Scientific). […] Trp fluorescence measurements with rapid mixing of agonist was carried out using the SX20 stopped-flow spectrofluorometer, outfitted with a 295 nm LED excitation source. Purified ELIC was diluted to 0.1 mg/ml in Trp Stopped-flow Buffer A (10 mM Tris pH 7.5, 100 mM NaCl, 0.05% DDM). A single mixing experiment was performed by mixing ELIC with equal volumes of Buffer A + propylamine. Propylamine was prepared at varying concentrations at 2x the final concentration. The instrument dead time was ~1 ms, enabling capture of most of the time course of change in Trp fluorescence. The time course of decrease in Trp fluorescence after rapid mixing with propylamine was fit to a single exponential to obtain a time constant for the rate of decrease and a measure of the extent of decrease. All replicates were taken from distinct samples.

NCCS [cysteamine]
Tryptophan fluorescence emission intensity (wavelength 320): 804590 | Tryptophan fluorescence emission intensity (wavelength 321): 840110 | Tryptophan fluorescence emission intensity (wavelength 322): 860020 | Tryptophan fluorescence emission intensity (wavelength 323): 881470 | Tryptophan fluorescence emission intensity (wavelength 324): 898170 | Tryptophan fluorescence emission intensity (wavelength 325): 925090 | Tryptophan fluorescence emission intensity (wavelength 327): 958460 | Tryptophan fluorescence emission intensity (wavelength 328): 977560 | Tryptophan fluorescence emission intensity (wavelength 329): 1001430 | Tryptophan fluorescence emission intensity (wavelength 330): 1017700 | Tryptophan fluorescence emission intensity (wavelength 331): 1038960 | Tryptophan fluorescence emission intensity (wavelength 332): 1051130 | Tryptophan fluorescence emission intensity (wavelength 333): 1064180 | Tryptophan fluorescence emission intensity (wavelength 334): 1076000 | Tryptophan fluorescence emission intensity (wavelength 335): 1094750 | Tryptophan fluorescence emission intensity (wavelength 336): 1105230 | Tryptophan fluorescence emission intensity (wavelength 337): 1102570 | Tryptophan fluorescence emission intensity (wavelength 338): 1110270 | Tryptophan fluorescence emission intensity (wavelength 339): 1107370 | Tryptophan fluorescence emission intensity (wavelength 340): 1100850 | Tryptophan fluorescence emission intensity (wavelength 341): 1109610 | Tryptophan fluorescence emission intensity (wavelength 342): 1105480 | Tryptophan fluorescence emission intensity (wavelength 343): 1098150 | Tryptophan fluorescence emission intensity (wavelength 344): 1095000 | Tryptophan fluorescence emission intensity (wavelength 345): 1092160 | Tryptophan fluorescence emission intensity (wavelength 346): 1088360 | Tryptophan fluorescence emission intensity (wavelength 347): 1077030 | Tryptophan fluorescence emission intensity (wavelength 348): 1068840 | Tryptophan fluorescence emission intensity (wavelength 349): 1066310 | Tryptophan fluorescence emission intensity (wavelength 350): 1055290 | Tryptophan fluorescence emission intensity (wavelength 351): 1041270 | Tryptophan fluorescence emission intensity (wavelength 352): 1036270 | Tryptophan fluorescence emission intensity (wavelength 353): 1015310 | Tryptophan fluorescence emission intensity (wavelength 354): 1003150 | Tryptophan fluorescence emission intensity (wavelength 355): 990040 | Tryptophan fluorescence emission intensity (wavelength 356): 980580 | Tryptophan fluorescence emission intensity (wavelength 357): 950350 | Tryptophan fluorescence emission intensity (wavelength 358): 943630 | Tryptophan fluorescence emission intensity (wavelength 359): 918190 | Tryptophan fluorescence emission intensity (wavelength 360): 914380 | Tryptophan fluorescence emission intensity (wavelength 361): 899440 | Tryptophan fluorescence emission intensity (wavelength 362): 877520 | Tryptophan fluorescence emission intensity (wavelength 363): 850800 | Tryptophan fluorescence emission intensity (wavelength 364): 821470 | Tryptophan fluorescence emission intensity (wavelength 365): 795670 | Tryptophan fluorescence emission intensity (wavelength 366): 776390 | Tryptophan fluorescence emission intensity (wavelength 367): 752920 | Tryptophan fluorescence emission intensity (wavelength 368): 732340 | Tryptophan fluorescence emission intensity (wavelength 369): 720880 | Tryptophan fluorescence emission intensity (wavelength 370): 691880 | Tryptophan fluorescence emission intensity (wavelength 371): 677380 | Tryptophan fluorescence emission intensity (wavelength 372): 661530 | Tryptophan fluorescence emission intensity (wavelength 373): 643370 | Tryptophan fluorescence emission intensity (wavelength 374): 622610 | Tryptophan fluorescence emission intensity (wavelength 375): 605580 | Tryptophan fluorescence emission intensity (wavelength 376): 584360 | Tryptophan fluorescence emission intensity (wavelength 377): 567600 | Tryptophan fluorescence emission intensity (wavelength 378): 558770 | Tryptophan fluorescence emission intensity (wavelength 379): 531360 | Tryptophan fluorescence emission intensity (wavelength 380): 517880 | Tryptophan fluorescence emission intensity (wavelength 381): 499820 | Tryptophan fluorescence emission intensity (wavelength 382): 482620 | Tryptophan fluorescence emission intensity (wavelength 383): 465090 | Tryptophan fluorescence emission intensity (wavelength 384): 451150 | Tryptophan fluorescence emission intensity (wavelength 385): 428430 | Tryptophan fluorescence emission intensity (wavelength 386): 420060 | Tryptophan fluorescence emission intensity (wavelength 387): 400770 | Tryptophan fluorescence emission intensity (wavelength 388): 385350 | Tryptophan fluorescence emission intensity (wavelength 389): 381600 | Tryptophan fluorescence emission intensity (wavelength 390): 360170 | Tryptophan fluorescence emission intensity (wavelength 391): 346400 | Tryptophan fluorescence emission intensity (wavelength 392): 340740 | Tryptophan fluorescence emission intensity (wavelength 393): 327660 | Tryptophan fluorescence emission intensity (wavelength 394): 316470 | Tryptophan fluorescence emission intensity (wavelength 395): 301980 | Tryptophan fluorescence emission intensity (wavelength 396): 291020 | Tryptophan fluorescence emission intensity (wavelength 397): 277640 | Tryptophan fluorescence emission intensity (wavelength 398): 265940 | Tryptophan fluorescence emission intensity (wavelength 399): 253020 | Tryptophan fluorescence emission intensity (wavelength 400): 247580 | Tryptophan fluorescence emission intensity (wavelength 401): 237600 | Tryptophan fluorescence emission intensity (wavelength 402): 233050 | Tryptophan fluorescence emission intensity (wavelength 403): 223960 | Tryptophan fluorescence emission intensity (wavelength 404): 210930 | Tryptophan fluorescence emission intensity (wavelength 405): 205250 | Tryptophan fluorescence emission intensity (wavelength 406): 197950 | Tryptophan fluorescence emission intensity (wavelength 407): 191160 | Tryptophan fluorescence emission intensity (wavelength 408): 187280 | Tryptophan fluorescence emission intensity (wavelength 409): 181840 | Tryptophan fluorescence emission intensity (wavelength 410): 170220 | Tryptophan fluorescence emission intensity (wavelength 411): 167400 | Tryptophan fluorescence emission intensity (wavelength 412): 162070 | Tryptophan fluorescence emission intensity (wavelength 413): 154720 | Tryptophan fluorescence emission intensity (wavelength 414): 150730 | Tryptophan fluorescence emission intensity (wavelength 415): 146270 | Tryptophan fluorescence emission intensity (wavelength 416): 141050 | Tryptophan fluorescence emission intensity (wavelength 417): 136250 | Tryptophan fluorescence emission intensity (wavelength 418): 131260 | Tryptophan fluorescence emission intensity (wavelength 419): 129580 | Tryptophan fluorescence emission intensity (wavelength 420): 125310

— paper PMC9668969 (Nature Communications, 2022)
